Test results published in ChEMBL document CHEMBL1201862, “PubChem BioAssay data set” (2004).
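Following 48 hours of exposure in 96-well plates, responses at five concentrations were used to interpolate endpoints linearly. At the GI50, growth is halved.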 The source made the active and inactive calls. Cut-off read from the data, not from the text of the source: active = GI50 up to about 1.1 µM and inactive = higher.

Experiments:
Assay in all cases: inhibition of tumour cell growth, NCI panel, 48 h
[1] = system: HOP-18
[2] = system: HL-60
[3] = system: UACC-257
[4] = system: NCI-H460
[5] = system: SK-MEL-5
[6] = system: ACHN
[7] = system: DMS-114
[8] = system: SK-MEL-2
[9] = system: LXFL 529
[10] = system: KM-20L2
[11] = system: SNB-78
[12] = system: MOLT-4
[13] = system: HOP-62
[14] = system: CAKI-1
[15] = system: HCC 2998
[16] = system: RXF 393
[17] = system: NCI-H23
[18] = system: SNB-19
[19] = system: A549
[20] = system: U-251
[21] = system: RXF 631
[22] = system: K562
[23] = system: KM12
[24] = system: M19-MEL
[25] = system: SR
[26] = system: RPMI-8226
[27] = system: SF-295
[28] = system: UO-31
[29] = system: DLD-1
[30] = system: A498
[31] = system: IGROV-1
[32] = system: HT-29
[33] = system: EKVX
[34] = system: SF-268
[35] = system: SF-539
[36] = system: M14
[37] = system: SK-MEL-28
[38] = system: XF498
[39] = system: SK-OV-3
[40] = system: LOX IMVI
[41] = system: OVCAR-5
[42] = system: OVCAR-4
[43] = system: HCT-116
[44] = system: CCRF-CEM
[45] = system: TK-10
[46] = system: SW-620
[47] = system: HCT-15
[48] = system: Malme-3M
[49] = system: 786-0
[50] = system: DMS-273
[51] = system: OVCAR-8
[52] = system: SN12C
[53] = system: SNB-75
[54] = system: UACC-62
[55] = system: NCI-H522
[56] = system: OVCAR-3
[57] = system: HOP-92
[58] = system: NCI-H226

## CC(C)(C)c1cc(Cc2ccc([N+](C)(C)C)cc2)c(O)c(C(C)(C)C)c1
[1]
  GI50: 20.1 µM (inactive)
[2]
  GI50: 2.41 µM (inactive)
[3]
  GI50: 17 µM (inactive)
[4]
  GI50: 18.6 µM (inactive)
[5]
  GI50: 10.6 µM (inactive)
[6]
  GI50: > 100 µM (inactive)
[7]
  GI50: 7.19 µM (inactive)
[8]
  GI50: 16.5 µM (inactive)
[9]
  GI50: 13.8 µM (inactive)
[10]
  GI50: 21.9 µM (inactive)
[11]
  GI50: 14.9 µM (inactive)
[12]
  GI50: 11.8 µM (inactive)
[13]
  GI50: 16.6 µM (inactive)
[14]
  GI50: 63.8 µM (inactive)
[15]
  GI50: 15.7 µM (inactive)
[16]
  GI50: 16.4 µM (inactive)
[17]
  GI50: 17.7 µM (inactive)
[18]
  GI50: 12.9 µM (inactive)
[19]
  GI50: 33.9 µM (inactive)
[20]
  GI50: 12.7 µM (inactive)
[21]
  GI50: 45.6 µM (inactive)
[22]
  GI50: 9.59 µM (inactive)
[23]
  GI50: 15.7 µM (inactive)
[24]
  GI50: 12.9 µM (inactive)
[25]
  GI50: 14.1 µM (inactive)
[26]
  GI50: 14.8 µM (inactive)
[27]
  GI50: 26.3 µM (inactive)
[28]
  GI50: 95.3 µM (inactive)
[29]
  GI50: 45.4 µM (inactive)
[30]
  GI50: 53 µM (inactive)
[31]
  GI50: 14.2 µM (inactive)
[32]
  GI50: 15.4 µM (inactive)
[33]
  GI50: 30.2 µM (inactive)
[34]
  GI50: 15 µM (inactive)
[35]
  GI50: 16.5 µM (inactive)
[36]
  GI50: 18.2 µM (inactive)
[37]
  GI50: 12.5 µM (inactive)
[38]
  GI50: 13 µM (inactive)
[39]
  GI50: 25.2 µM (inactive)
[40]
  GI50: 16.4 µM (inactive)
[41]
  GI50: 22.2 µM (inactive)
[42]
  GI50: 30.1 µM (inactive)
[43]
  GI50: 16.7 µM (inactive)
[44]
  GI50: 12.5 µM (inactive)
[45]
  GI50: 24.6 µM (inactive)
[46]
  GI50: 23.2 µM (inactive)
[47]
  GI50: > 100 µM
[48]
  GI50: 17.9 µM (inactive)
[49]
  GI50: 24.2 µM (inactive)
[50]
  GI50: 9.64 µM (inactive)
[51]
  GI50: 17.4 µM (inactive)
[52]
  GI50: 14.9 µM (inactive)
[53]
  GI50: 9.2 µM (inactive)
[54]
  GI50: 14.3 µM (inactive)

## Cc1ccc(C)c(NC(=O)C(=O)C2C(=O)N(c3ccccc3)N=C2N)c1 (centres undefined)
[1]
  GI50: > 100 µM (inactive)
[2]
  GI50: 31.7 µM (inactive)
[3]
  GI50: > 100 µM (inactive)
[4]
  GI50: > 100 µM (inactive)
[5]
  GI50: > 100 µM (inactive)
[6]
  GI50: > 100 µM (inactive)
[55]
  GI50: > 100 µM (inactive)
[8]
  GI50: > 100 µM (inactive)
[9]
  GI50: > 100 µM (inactive)
[10]
  GI50: > 100 µM (inactive)
[11]
  GI50: > 100 µM (inactive)
[12]
  GI50: > 100 µM (inactive)
[13]
  GI50: > 100 µM (inactive)
[14]
  GI50: > 100 µM (inactive)
[15]
  GI50: > 100 µM (inactive)
[16]
  GI50: > 100 µM (inactive)
[17]
  GI50: > 100 µM (inactive)
[18]
  GI50: > 100 µM (inactive)
[19]
  GI50: > 100 µM (inactive)
[20]
  GI50: > 100 µM (inactive)
[21]
  GI50: > 100 µM (inactive)
[22]
  GI50: 90.2 µM (inactive)
[23]
  GI50: > 100 µM (inactive)
[24]
  GI50: > 100 µM (inactive)
[26]
  GI50: > 100 µM (inactive)
[27]
  GI50: > 100 µM (inactive)
[28]
  GI50: > 100 µM (inactive)
[29]
  GI50: > 100 µM (inactive)
[30]
  GI50: > 100 µM (inactive)
[31]
  GI50: > 100 µM (inactive)
[32]
  GI50: > 100 µM (inactive)
[33]
  GI50: > 100 µM (inactive)
[56]
  GI50: > 100 µM (inactive)
[34]
  GI50: > 100 µM (inactive)
[35]
  GI50: > 100 µM (inactive)
[36]
  GI50: > 100 µM (inactive)
[37]
  GI50: > 100 µM (inactive)
[38]
  GI50: > 100 µM (inactive)
[57]
  GI50: > 100 µM (inactive)
[40]
  GI50: > 100 µM (inactive)
[41]
  GI50: > 100 µM (inactive)
[42]
  GI50: > 100 µM (inactive)
[43]
  GI50: > 100 µM (inactive)
[44]
  GI50: > 100 µM (inactive)
[45]
  GI50: > 100 µM (inactive)
[46]
  GI50: > 100 µM (inactive)
[47]
  GI50: > 100 µM
[48]
  GI50: > 100 µM (inactive)
[58]
  GI50: > 100 µM (inactive)
[49]
  GI50: > 100 µM (inactive)
[50]
  GI50: > 100 µM (inactive)
[51]
  GI50: > 100 µM (inactive)
[52]
  GI50: > 100 µM (inactive)
[53]
  GI50: > 100 µM (inactive)
[54]
  GI50: > 100 µM (inactive)
